Laboratory results from ChEMBL document CHEMBL1134111, “Nucleoside analogues as highly potent and selective inhibitors of herpes simplex virus thymidine kinase” (Bioorg Med Chem Lett, 2001).

How the values were obtained:
Thymidine kinase [1] = target: T1, Thymidine kinase (Human herpesvirus 2, UniProt Q6L709); assay: Inhibitory activity against HSV-2 Thymidine Kinase (HSV-2 TK)
T1 sequence (Q6L709 whole entry): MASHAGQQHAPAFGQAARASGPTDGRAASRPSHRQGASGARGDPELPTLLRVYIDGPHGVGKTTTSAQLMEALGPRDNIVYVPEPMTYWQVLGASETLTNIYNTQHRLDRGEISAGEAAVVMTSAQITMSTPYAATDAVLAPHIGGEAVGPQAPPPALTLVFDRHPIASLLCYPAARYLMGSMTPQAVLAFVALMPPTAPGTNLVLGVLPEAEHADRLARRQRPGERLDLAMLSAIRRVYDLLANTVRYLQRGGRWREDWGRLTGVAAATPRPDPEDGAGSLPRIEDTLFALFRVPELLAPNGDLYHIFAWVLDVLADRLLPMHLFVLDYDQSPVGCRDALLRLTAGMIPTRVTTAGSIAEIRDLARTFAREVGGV

Thymidine kinase [2] = target: T2, Thymidine kinase (Human herpesvirus 1 (strain SC16) (HHV-1) (Human herpes simplex virus1), UniProt P06479); assay: Inhibitory activity against HSV-1 Thymidine Kinase (HSV-1 TK)
T2 sequence (P06479 whole entry): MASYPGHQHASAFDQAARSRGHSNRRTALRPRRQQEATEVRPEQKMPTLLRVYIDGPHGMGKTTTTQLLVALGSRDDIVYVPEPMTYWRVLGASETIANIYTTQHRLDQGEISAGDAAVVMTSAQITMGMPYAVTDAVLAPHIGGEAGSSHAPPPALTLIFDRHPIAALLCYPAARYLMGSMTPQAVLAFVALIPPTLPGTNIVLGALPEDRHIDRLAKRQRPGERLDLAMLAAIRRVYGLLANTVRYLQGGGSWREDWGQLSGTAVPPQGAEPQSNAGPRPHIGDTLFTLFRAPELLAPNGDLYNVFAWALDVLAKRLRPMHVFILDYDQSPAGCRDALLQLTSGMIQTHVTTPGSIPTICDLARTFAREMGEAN

SMILES	IC50 (Thymidine kinase [1]) [nM]	IC50 (Thymidine kinase [2]) [nM]
CCc1cn([C@H]2C[C@H](O)[C@@H](CNC(=O)Cc3ccccc3Cl)O2)c(=O)[nH]c1=O	30	100
CCc1cn([C@@H]2O[C@H](CNC(=O)C3c4ccccc4Oc4c3cccc4C(F)(F)F)[C@@H](O)[C@@H]2F)c(=O)[nH]c1=O (some centres undefined)	0.14	1
CCc1cn([C@H]2C[C@H](O)[C@@H](CNC(=O)C3c4ccccc4S(=O)(=O)c4ccccc43)O2)c(=O)[nH]c1=O	0.13	0.95
CCc1cn([C@H]2C[C@H](O)[C@@H](CNC(=O)Cc3ccccc3-c3ccccc3)O2)c(=O)[nH]c1=O	90	240
CCc1cn([C@@H]2O[C@H](CNC(=O)C3c4ccccc4Oc4c(Cl)cccc43)[C@@H](O)[C@@H]2F)c(=O)[nH]c1=O (some centres undefined)	0.14	0.85
CCc1cn([C@H]2C[C@H](O)[C@@H](CNC(=O)Cc3ccccc3C(F)(F)F)O2)c(=O)[nH]c1=O	90	200
CCc1cn([C@H]2C[C@H](O)[C@@H](CNC(=O)c3c4ccccc4cc4ccccc34)O2)c(=O)[nH]c1=O	420	1650
CCc1cn([C@H]2C[C@H](O)[C@@H](CNC(=O)C3c4ccccc4Oc4ccccc43)O2)c(=O)[nH]c1=O	0.13	2.9
CCc1cn([C@@H]2O[C@H](CNC(=O)[C@H](C)Oc3cc(OC)c(Cl)cc3Cl)[C@@H](O)[C@@H]2F)c(=O)[nH]c1=O	0.19	1.8
CCc1cn([C@H]2C[C@H](O)[C@@H](CNC(=O)Cc3ccccc3OC)O2)c(=O)[nH]c1=O	70	300
CCc1cn([C@H]2C[C@H](O)[C@@H](CNC(=O)Cc3ccccc3C)O2)c(=O)[nH]c1=O	60	200
CCc1cn([C@@H]2O[C@H](CNC(=O)C3c4ccccc4Oc4ccccc43)[C@@H](O)[C@@H]2F)c(=O)[nH]c1=O	0.11	2.1
CCc1cn([C@@H]2O[C@H](CNC(=O)C3c4ccccc4S(=O)(=O)c4c(Cl)cccc43)[C@@H](O)[C@@H]2F)c(=O)[nH]c1=O (some centres undefined)	0.09	0.27
CCc1cn([C@@H]2O[C@H](CNC(=O)C3c4ccccc4Sc4c(Cl)cccc43)[C@@H](O)[C@@H]2F)c(=O)[nH]c1=O (some centres undefined)	0.21	1.5
CCc1cn([C@@H]2O[C@H](CNC(=O)C3c4cccc(Cl)c4Oc4c(Cl)cccc43)[C@@H](O)[C@@H]2F)c(=O)[nH]c1=O	0.1	0.3
CCc1cn([C@H]2C[C@H](O)[C@@H](CNC(=O)C3c4ccccc4Sc4ccccc43)O2)c(=O)[nH]c1=O	1.4	11.5

SMILES	IC50 (Thymidine kinase [1]) [nM]	IC50 (Thymidine kinase [2]) [nM]
CCc1cn([C@@H]2O[C@H](CNC(=O)C3c4ccccc4C(C)(C)c4ccccc43)[C@@H](O)[C@@H]2F)c(=O)[nH]c1=O	0.28	1.5
CCc1cn([C@H]2C[C@H](O)[C@@H](CNC(=O)C3c4ccccc4-c4ccccc43)O2)c(=O)[nH]c1=O	5.2	28
CCc1cn([C@@H]2O[C@H](CNC(=O)C3c4ccccc4Oc4c(-c5ccccc5)cccc43)[C@@H](O)[C@@H]2F)c(=O)[nH]c1=O (some centres undefined)	0.14	0.66
CCc1cn([C@H]2C[C@H](O)[C@@H](CNC(=O)Cc3ccccc3F)O2)c(=O)[nH]c1=O	140	700
CCc1cn([C@H]2C[C@H](O)[C@@H](CNC(=O)C3c4ccccc4N(C)c4ccccc43)O2)c(=O)[nH]c1=O	2.6	23
CCc1cn([C@H]2C[C@H](O)[C@@H](CNC(=O)Cc3c(Cl)cccc3Cl)O2)c(=O)[nH]c1=O	3.3	1
CCc1cn([C@H]2C[C@H](O)[C@@H](CNC(=O)Cc3ccccc3)O2)c(=O)[nH]c1=O	300	1000
CCc1cn([C@@H]2O[C@H](CNC(=O)C3c4ccccc4Oc4c(OC)cccc43)[C@@H](O)[C@@H]2F)c(=O)[nH]c1=O (some centres undefined)	0.21	1.7
CCc1cn([C@@H]2O[C@H](CNC(=O)C3c4ccccc4S(=O)(=O)c4ccccc43)[C@@H](O)[C@@H]2F)c(=O)[nH]c1=O	0.11	0.93
CCc1cn([C@H]2C[C@H](O)[C@@H](CNC(=O)C3c4ccccc4CCc4ccccc43)O2)c(=O)[nH]c1=O	44	260
CCc1cn([C@@H]2O[C@H](CNC(=O)C3c4ccccc4C(C(F)(F)F)(C(F)(F)F)c4ccccc43)[C@@H](O)[C@@H]2F)c(=O)[nH]c1=O	0.11	0.19
CCc1cn([C@H]2C[C@H](O)[C@@H](CNC(=O)C3c4ccccc4Cc4ccccc43)O2)c(=O)[nH]c1=O	1.2	7
CCc1cn([C@@H]2O[C@H](CNC(=O)C3c4ccccc4Sc4ccccc43)[C@@H](O)[C@@H]2F)c(=O)[nH]c1=O	0.7	8.5
CCc1cn([C@@H]2O[C@H](CNC(=O)C3c4cccc(C)c4Oc4c(C)cccc43)[C@@H](O)[C@@H]2F)c(=O)[nH]c1=O	0.43	2.2
CCc1cn([C@@H]2O[C@H](CNC(=O)C3c4ccccc4Oc4c(C)cccc43)[C@@H](O)[C@@H]2F)c(=O)[nH]c1=O (some centres undefined)	0.19	1.6
CCc1cn([C@H]2C[C@H](O)[C@@H](CNC(=O)Cc3c(C)cccc3C)O2)c(=O)[nH]c1=O	8.4	40
